Source: patent US20190388425A1, “SUBSTITUTED IMIDAZOPYRIDINPYRIMIDINES” (Bayer Pharma Aktiengesellschaft, priority 2017, published 2019)

Target: T1, human full-length MKNK1 (Homo sapiens, UniProt Q9BUB5, T385D)
T1 construct: GST (N); purchased Carna Biosciences 02-145; host or cells: insect cells (baculovirus expression system)
Assay: MKNK1 kinase high ATP assay (TR-FRET)
Format: biochemical
Conditions: TR-FRET, 2 mM ATP (high ATP), 15 min preincubation with enzyme, 30 min reaction at 22° C.; read-out: MKNK1 IC50
Summary of the method: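 Full-length human MKNK1 (T385D) preincubated 15 min at 22 °C with compound in HEPES pH 7.5/MgCl2/DTT buffer; reaction with 2 mM ATP (final) and 0.06 μM biotinylated peptide (final), 30 min at 22 °C.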

T1 sequence (Q9BUB5 1-424 isoform Q9BUB5-2 T344D): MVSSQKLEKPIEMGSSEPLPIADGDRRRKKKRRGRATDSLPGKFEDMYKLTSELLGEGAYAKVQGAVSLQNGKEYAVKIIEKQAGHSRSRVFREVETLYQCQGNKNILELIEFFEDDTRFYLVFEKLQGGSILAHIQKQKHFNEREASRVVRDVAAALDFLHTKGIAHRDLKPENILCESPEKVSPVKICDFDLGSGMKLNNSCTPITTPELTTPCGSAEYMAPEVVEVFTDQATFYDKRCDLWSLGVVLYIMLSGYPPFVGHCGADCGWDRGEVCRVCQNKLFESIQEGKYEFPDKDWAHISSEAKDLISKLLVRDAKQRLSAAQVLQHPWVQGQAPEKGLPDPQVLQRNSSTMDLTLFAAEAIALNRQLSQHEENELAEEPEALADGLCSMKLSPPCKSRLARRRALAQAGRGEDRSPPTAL

Compound | IC50
C[C@@H]1COCCN1C(=O)[C@H]1CCc2c(sc3ncnc(Nc4cc(Cl)c5n(c4=O)C4(CCCC4)NC5=O)c23)C1 [Example 90, 8′-Chloro-6′-({(7S)-7-[(3R)-3-methylmorpholine-4-carbonyl]-5,6,7,8-tetrahydro[1]benzothieno[2,3-d]pyrimidin-4-yl}amino)-2′H-spiro[cyclopentane-1,3′-imidazo[1,5-a]pyridine]-1′,5′-dione] | 0.3 nM
O=C1NC2(CCCC2)n2c1c(Cl)cc(Nc1ncnc3sc4c(c13)CC[C@H](C(=O)N1C[C@H]3C[C@@H]1CO3)C4)c2=O [Example 92, 8′-Chloro-6′-({(7S)-7-[(1R,4R)-2-oxa-5-azabicyclo[2.2.1]heptane-5-carbonyl]-5,6,7,8-tetrahydro[1]benzothieno[2,3-d]pyrimidin-4-yl}amino)-2′H-spiro[cyclopentane-1,3′-imidazo[1,5-a]pyridine]-1′,5′-dione] | 1 nM
O=C1NC2(CCC2)n2c1c(Cl)cc(Nc1ncnc3sc4c(c13)CC[C@H](C(=O)O)C4)c2=O [Example 93, (7S)-4-[(8′-Chloro-1′,5′-dioxo-1′,5′-dihydro-2′H-spiro[cyclobutane-1,3′-imidazo[1,5-a]pyridin]-6′-yl)amino]-5,6,7,8-tetrahydro[1]benzothieno[2,3-d]pyrimidine-7-carboxylic acid] | 1.3 nM
NC(=O)[C@H]1CCc2c(sc3ncnc(Nc4cc(Cl)c5n(c4=O)C4(CCC4)NC5=O)c23)C1 [Example 94, (7S)-4-[(8′-Chloro-1′,5′-dioxo-1′,5′-dihydro-2′H-spiro[cyclobutane-1,3′-imidazo[1,5-a]pyridin]-6′-yl)amino]-5,6,7,8-tetrahydro[1]benzothieno[2,3-d]pyrimidine-7-carboxamide] | 0.2 nM
CN(C)C(=O)[C@H]1CCc2c(sc3ncnc(Nc4cc(Cl)c5n(c4=O)C4(CCC4)NC5=O)c23)C1 [Example 95, (7S)-4-[(8′-Chloro-1′,5′-dioxo-1′,5′-dihydro-2′H-spiro[cyclobutane-1,3′-imidazo[1,5-a]pyridin]-6′-yl)amino]-N,N-dimethyl-5,6,7,8-tetrahydro[1]benzothieno[2,3-d]pyrimidine-7-carboxamide] | 1.9 nM
O=C1NC2(CSC2)n2c1c(Cl)cc(Nc1ncnc3sc4c(c13)CC[C@H](C(=O)O)C4)c2=O [Example 101, (7S)-4-[(8-Chloro-1,5-dioxo-1,5-dihydro-2H-spiro[imidazo[1,5-a]pyridine-3,3′-thietan]-6-yl)amino]-5,6,7,8-tetrahydro[1]benzothieno[2,3-d]pyrimidine-7-carboxylic acid] | 1.8 nM
CN(C)C(=O)[C@H]1CCc2c(sc3ncnc(Nc4cc(Cl)c5n(c4=O)C4(CSC4)NC5=O)c23)C1 [Example 102, (7S)-4-[(8-Chloro-1,5-dioxo-1,5-dihydro-2H-spiro[imidazo[1,5-a]pyridine-3,3′-thietan]-6-yl)amino]-N,N-dimethyl-5,6,7,8-tetrahydro[1]benzothieno[2,3-d]pyrimidine-7-carboxamide] | 0.2 nM
O=C1NC2(CSC2)n2c1c(Cl)cc(Nc1ncnc3sc4c(c13)CC[C@H](C(=O)N1CCC1)C4)c2=O [Example 103, 6-{[(7S)-7-(Azetidine-1-carbonyl)-5,6,7,8-tetrahydro[1]benzothieno[2,3-d]pyrimidin-4-yl]amino}-8-chloro-2H-spiro[imidazo[1,5-a]pyridine-3,3′-thietane]-1,5-dione] | 0.2 nM
N#CC1CN(C(=O)[C@H]2CCc3c(sc4ncnc(Nc5cc(Cl)c6n(c5=O)C5(CSC5)NC6=O)c34)C2)C1 [Example 104, 1-{(7S)-4-[(8-Chloro-1,5-dioxo-1,5-dihydro-2H-spiro[imidazo[1,5-a]pyridine-3,3′-thietan]-6-yl)amino]-5,6,7,8-tetrahydro[1]benzothieno[2,3-d]pyrimidine-7-carbonyl}azetidine-3-carbonitrile] | 0.2 nM
C[C@@H]1COCCN1C(=O)[C@H]1CCc2c(sc3ncnc(Nc4cc(Cl)c5n(c4=O)C4(CSC4)NC5=O)c23)C1 [Example 106, 8-Chloro-6-({(7S)-7-[(3R)-3-methylmorpholine-4-carbonyl]-5,6,7,8-tetrahydro[1]benzothieno[2,3-d]pyrimidin-4-yl}amino)-2H-spiro[imidazo[1,5-a]pyridine-3,3′-thietane]-1,5-dione] | 0.3 nM
C[C@@H]1CN(C(=O)[C@H]2CCc3c(sc4ncnc(Nc5cc(Cl)c6n(c5=O)C5(CSC5)NC6=O)c34)C2)CCN1C [Example 107, 8-Chloro-6-({(7S)-7-[(3R)-3,4-dimethylpiperazine-1-carbonyl]-5,6,7,8-tetrahydro[1]benzothieno[2,3-d]pyrimidin-4-yl}amino)-2H-spiro[imidazo[1,5-a]pyridine-3,3′-thietane]-1,5-dione] | 0.2 nM
O=C1NC2(CSC2)n2c1c(Cl)cc(Nc1ncnc3sc4c(c13)CC[C@H](C(=O)N1C[C@H]3C[C@@H]1CO3)C4)c2=O [Example 108, 8-Chloro-6-({(7S)-7-[(1R,4R)-2-oxa-5-azabicyclo[2.2.1]heptane-5-carbonyl]-5,6,7,8-tetrahydro[1]benzothieno[2,3-d]pyrimidin-4-yl}amino)-2H-spiro[imidazo[1,5-a]pyridine-3,3′-thietane]-1,5-dione] | 0.8 nM
CC1(C)NC(=O)c2c(Cl)cc(Nc3ncnc4sc5c(c34)CC[C@H](C(=O)O)C5)c(=O)n21 [Example 109, (7S)-4-[(8-Chloro-3,3-dimethyl-1,5-dioxo-1,2,3,5-tetrahydroimidazo[1,5-a]pyridin-6-yl)amino]-5,6,7,8-tetrahydro[1]benzothieno[2,3-d]pyrimidine-7-carboxylic acid] | 26.7 nM
CC1(C)NC(=O)c2c(Cl)cc(Nc3ncnc4sc5c(c34)CC[C@H](C(N)=O)C5)c(=O)n21 [Example 110, (7S)-4-[(8-Chloro-3,3-dimethyl-1,5-dioxo-1,2,3,5-tetrahydroimidazo[1,5-a]pyridin-6-yl)amino]-5,6,7,8-tetrahydro[1]benzothieno[2,3-d]pyrimidine-7-carboxamide] | 1.2 nM

Now those with a lower IC50, led by results:

IC50 | Compound
< 0.1 nM | N#CC1CN(C(=O)[C@H]2CCc3c(sc4ncnc(Nc5cc(Cl)c6n(c5=O)C5(CCCC5)NC6=O)c34)C2)C1 [Example 88, 1-{(7S)-4-[(8′-Chloro-1′,5′-dioxo-1′,5′-dihydro-2′H-spiro[cyclopentane-1,3′-imidazo[1,5-a]pyridin]-6′-yl)amino]-5,6,7,8-tetrahydro[1]benzothieno[2,3-d]pyrimidine-7-carbonyl}azetidine-3-carbonitrile]
< 0.1 nM | CN(C)[C@H]1CCN(C(=O)[C@H]2CCc3c(sc4ncnc(Nc5cc(Cl)c6n(c5=O)C5(CCCC5)NC6=O)c34)C2)C1 [Example 89, 8′-Chloro-6′-({(7S)-7-[(3S)-3-(dimethylamino)pyrrolidine-1-carbonyl]-5,6,7,8-tetrahydro[1]benzothieno[2,3-d]pyrimidin-4-yl}amino)-2′H-spiro[cyclopentane-1,3′-imidazo[1,5-a]pyridine]-1′,5′-dione]
< 0.1 nM | C[C@@H]1CN(C(=O)[C@H]2CCc3c(sc4ncnc(Nc5cc(Cl)c6n(c5=O)C5(CCCC5)NC6=O)c34)C2)CCN1C [Example 91, 8′-Chloro-6′-({(7S)-7-[(3R)-3,4-dimethylpiperazine-1-carbonyl]-5,6,7,8-tetrahydro[1]benzothieno[2,3-d]pyrimidin-4-yl}amino)-2′H-spiro[cyclopentane-1,3′-imidazo[1,5-a]pyridine]-1′,5′-dione]
0.1 nM | O=C1NC2(CCC2)n2c1c(Cl)cc(Nc1ncnc3sc4c(c13)CC[C@H](C(=O)N1CCC1)C4)c2=O [Example 96, 6′-{[(7S)-7-(Azetidine-1-carbonyl)-5,6,7,8-tetrahydro[1]benzothieno[2,3-d]pyrimidin-4-yl]amino}-8′-chloro-2′H-spiro[cyclobutane-1,3′-imidazo[1,5-a]pyridine]-1′,5′-dione]
0.1 nM | N#CC1CN(C(=O)[C@H]2CCc3c(sc4ncnc(Nc5cc(Cl)c6n(c5=O)C5(CCC5)NC6=O)c34)C2)C1 [Example 97, 1-{(7S)-4-[(8′-Chloro-1′,5′-dioxo-1′,5′-dihydro-2′H-spiro[cyclobutane-1,3′-imidazo[1,5-a]pyridin]-6′-yl)amino]-5,6,7,8-tetrahydro[1]benzothieno[2,3-d]pyrimidine-7-carbonyl}azetidine-3-carbonitrile]
< 0.1 nM | CN(C)[C@H]1CCN(C(=O)[C@H]2CCc3c(sc4ncnc(Nc5cc(Cl)c6n(c5=O)C5(CCC5)NC6=O)c34)C2)C1 [Example 98, 8′-Chloro-6′-({(7S)-7-[(3S)-3-(dimethylamino)pyrrolidine-1-carbonyl]-5,6,7,8-tetrahydro[1]benzothieno[2,3-d]pyrimidin-4-yl}amino)-2′H-spiro[cyclobutane-1,3′-imidazo[1,5-a]pyridine]-1′,5′-dione]
0.1 nM | C[C@@H]1COCCN1C(=O)[C@H]1CCc2c(sc3ncnc(Nc4cc(Cl)c5n(c4=O)C4(CCC4)NC5=O)c23)C1 [Example 99, 8′-Chloro-6′-({(7S)-7-[(3R)-3-methylmorpholine-4-carbonyl]-5,6,7,8-tetrahydro[1]benzothieno[2,3-d]pyrimidin-4-yl}amino)-2′H-spiro[cyclobutane-1,3′-imidazo[1,5-a]pyridine]-1′,5′-dione]
0.1 nM | C[C@@H]1CN(C(=O)[C@H]2CCc3c(sc4ncnc(Nc5cc(Cl)c6n(c5=O)C5(CCC5)NC6=O)c34)C2)CCN1C [Example 100, 8′-Chloro-6′-({(7S)-7-[(3R)-3,4-dimethylpiperazine-1-carbonyl]-5,6,7,8-tetrahydro[1]benzothieno[2,3-d]pyrimidin-4-yl}amino)-2′H-spiro[cyclobutane-1,3′-imidazo[1,5-a]pyridine]-1′,5′-dione]
0.1 nM | CN(C)[C@H]1CCN(C(=O)[C@H]2CCc3c(sc4ncnc(Nc5cc(Cl)c6n(c5=O)C5(CSC5)NC6=O)c34)C2)C1 [Example 105, 8-Chloro-6-({(7S)-7-[(3S)-3-(dimethylamino)pyrrolidine-1-carbonyl]-5,6,7,8-tetrahydro[1]benzothieno[2,3-d]pyrimidin-4-yl}amino)-2H-spiro[imidazo[1,5-a]pyridine-3,3′-thietane]-1,5-dione]
